According to patent US20260297060A1, “COMPOUNDS FOR THE DEGRADATION OF MUTANT BRAF” (C4 THERAPEUTICS, INC., priority 2023, published 2026):
Like-named read-outs stand apart in the source and are kept apart here.

Key:
A375-NRAS^Q61K cells = assay: CTGlo Cell Viability Assay, A375-NRAS^Q61K (A375.11) cells, 96 hours; assay type: cell-based, human; details: A375.11 (A375-NRAS^Q61K) cells; for CTGlo A375.11 96 hours Emax / Emax: lowest % viability achieved
In short: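 Viability as CellTiter-Glo ATP luminescence after 96 h compound exposure at 37 °C; A375.11 (BRAF V600E/NRAS Q61K) cells at 250/well, top final concentration 10 μM in half-log steps. Signal was background-corrected and set relative to DMSO controls. A 4-parameter logistic fit gave GI50 (50% crossing) and Emax.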

BRAF V600E = biological target: T1, BRAF V600E (Homo sapiens, UniProt P15056+Q96SW2, V600E); assay: BRAF V600E HiBiT Degradation Assay; assay type: cell-based
T1 construct: knock-in of the HiBiT tag to the endogenous BRAF V600E locus; host or cells: A375.10 (A375 clonal line, CRISPR HiBiT knock-in at the endogenous BRAF V600E locus)
T1 sequence (P15056 whole entry V600E): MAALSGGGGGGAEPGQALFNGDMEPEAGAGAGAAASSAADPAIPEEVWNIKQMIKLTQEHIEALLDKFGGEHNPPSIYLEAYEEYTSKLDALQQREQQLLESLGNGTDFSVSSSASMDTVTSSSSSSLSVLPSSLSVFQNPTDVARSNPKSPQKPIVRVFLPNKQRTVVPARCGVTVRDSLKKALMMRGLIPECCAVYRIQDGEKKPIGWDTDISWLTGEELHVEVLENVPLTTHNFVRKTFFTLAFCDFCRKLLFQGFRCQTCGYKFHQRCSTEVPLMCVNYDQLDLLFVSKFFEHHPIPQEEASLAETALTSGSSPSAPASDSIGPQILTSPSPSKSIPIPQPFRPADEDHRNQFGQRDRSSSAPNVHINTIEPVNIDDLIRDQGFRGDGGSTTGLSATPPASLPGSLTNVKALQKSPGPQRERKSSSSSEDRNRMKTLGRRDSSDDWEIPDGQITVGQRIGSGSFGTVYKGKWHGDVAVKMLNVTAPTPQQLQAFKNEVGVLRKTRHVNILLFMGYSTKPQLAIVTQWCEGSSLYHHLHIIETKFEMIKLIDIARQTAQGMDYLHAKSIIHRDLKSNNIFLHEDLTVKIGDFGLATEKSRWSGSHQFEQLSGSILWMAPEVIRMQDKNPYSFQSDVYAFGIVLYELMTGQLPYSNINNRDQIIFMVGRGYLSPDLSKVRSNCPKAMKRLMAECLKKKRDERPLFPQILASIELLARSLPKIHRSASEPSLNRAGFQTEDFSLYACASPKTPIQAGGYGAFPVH
T1 sequence (Q96SW2 whole entry): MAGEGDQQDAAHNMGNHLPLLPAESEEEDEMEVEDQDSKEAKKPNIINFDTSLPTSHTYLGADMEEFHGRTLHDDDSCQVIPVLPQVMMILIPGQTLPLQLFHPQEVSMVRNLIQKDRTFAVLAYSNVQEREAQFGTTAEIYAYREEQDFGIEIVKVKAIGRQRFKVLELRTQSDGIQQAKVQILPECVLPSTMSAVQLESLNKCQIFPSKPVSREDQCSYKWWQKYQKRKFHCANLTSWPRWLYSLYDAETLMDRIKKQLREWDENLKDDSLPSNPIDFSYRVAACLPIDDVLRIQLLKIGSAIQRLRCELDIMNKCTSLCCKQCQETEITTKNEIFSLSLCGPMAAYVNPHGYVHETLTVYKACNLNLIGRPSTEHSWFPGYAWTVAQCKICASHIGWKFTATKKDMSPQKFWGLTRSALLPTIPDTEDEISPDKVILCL
T1 sequence (Q16531 whole entry partner): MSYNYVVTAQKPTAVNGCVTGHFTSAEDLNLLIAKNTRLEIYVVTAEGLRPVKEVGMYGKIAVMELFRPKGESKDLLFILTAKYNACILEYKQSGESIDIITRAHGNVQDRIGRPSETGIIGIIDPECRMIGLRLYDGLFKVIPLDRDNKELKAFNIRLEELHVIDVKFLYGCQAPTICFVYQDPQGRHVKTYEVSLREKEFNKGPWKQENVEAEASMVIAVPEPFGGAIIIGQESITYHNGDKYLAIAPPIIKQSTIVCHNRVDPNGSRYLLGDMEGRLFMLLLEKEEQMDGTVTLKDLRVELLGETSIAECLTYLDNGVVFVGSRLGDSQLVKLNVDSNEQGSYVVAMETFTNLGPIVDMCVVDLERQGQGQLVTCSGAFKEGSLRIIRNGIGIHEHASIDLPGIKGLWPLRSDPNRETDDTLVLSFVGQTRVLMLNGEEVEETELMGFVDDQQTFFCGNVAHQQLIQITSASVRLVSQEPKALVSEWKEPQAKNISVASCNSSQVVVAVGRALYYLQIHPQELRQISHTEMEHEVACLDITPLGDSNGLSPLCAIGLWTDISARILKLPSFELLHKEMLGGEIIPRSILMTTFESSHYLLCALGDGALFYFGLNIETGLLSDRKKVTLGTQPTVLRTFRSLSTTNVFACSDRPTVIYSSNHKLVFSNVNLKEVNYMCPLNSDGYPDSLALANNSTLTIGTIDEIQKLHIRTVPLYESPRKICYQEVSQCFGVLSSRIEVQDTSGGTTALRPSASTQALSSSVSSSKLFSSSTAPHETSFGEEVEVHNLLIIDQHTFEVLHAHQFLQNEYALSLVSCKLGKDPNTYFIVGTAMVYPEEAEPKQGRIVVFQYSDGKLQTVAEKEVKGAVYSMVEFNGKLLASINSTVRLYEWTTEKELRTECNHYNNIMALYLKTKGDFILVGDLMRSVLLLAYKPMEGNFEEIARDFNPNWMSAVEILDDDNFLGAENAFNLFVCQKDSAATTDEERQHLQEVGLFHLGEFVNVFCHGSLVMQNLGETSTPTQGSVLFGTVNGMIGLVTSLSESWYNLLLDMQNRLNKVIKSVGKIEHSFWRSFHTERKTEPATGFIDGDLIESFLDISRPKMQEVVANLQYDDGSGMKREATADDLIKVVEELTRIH
In short: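 Endogenous HiBiT knock-in on BRAF V600E in A375 cells (clone A375.10); 11-point half-log series, top 10 μM, 2, 6 or 24 h at 37° C. Lytic HiBiT luminescence, background-subtracted, normalized to DMSO; 4-parameter fit gives DC50, Emax (residual protein) and IP (inflection point).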

[1] = A375.10 cells, BRAF V600E, 2 hours, inflection point, read-out: HiBiT-Degradation A375.10 BRAF 2 hours IP
[2] = A375.10 cells, BRAF V600E, 2 hours, read-out: HiBiT-Degradation A375.10 BRAF 2 hours DC50
[3] = A375.10 cells, BRAF V600E, 2 hours, residual protein remaining, read-out: HiBiT-Degradation A375.10 BRAF 2 hours Emax
[4] = A375.10 cells, HiBiT, BRAF V600E, 24 hours, read-out: HiBiT-Degradation A375.10 BRAF 24 hours DC50
[5] = A375.10 cells, HiBiT, BRAF V600E, 24 hours, read-out: HiBiT-Degradation A375.10 BRAF 24 hours Emax
[6] = A375.10 cells, HiBiT, BRAF V600E, 24 hours, read-out: HiBiT-Degradation A375.10 BRAF 24 hours IP
[7] = A375.10 cells, BRAF V600E, 2 hours, residual protein remaining
[8] = A375.10 cells, BRAF V600E, 6 hours, inflection point, read-out: HiBiT-Degradation A375.10 BRAF 6 hours IP
[9] = A375.10 cells, BRAF V600E, 6 hours, read-out: HiBiT-Degradation A375.10 BRAF 6 hours DC50
[10] = A375.10 cells, BRAF V600E, 6 hours, residual protein remaining
[11] = A375.10 cells, HiBiT, BRAF V600E, 24 hours

Row | Structure (SMILES) | GI50 (A375-NRAS^Q61K cells) | DC50 (BRAF V600E; [1]) | DC50 (BRAF V600E; [2]) | Emax (BRAF V600E; [3]) | DC50 (BRAF V600E; [4]) | Emax (BRAF V600E; [5]) | DC50 (BRAF V600E; [6]) | HiBiT-Degradation A375.10 BRAF 2 hours Emax (BRAF V600E; [7]) | GI50 (A375-NRAS^Q61K cells; Homo sapiens, 96 h) | Emax (BRAF V600E; read-out: HiBiT-Degradation A375.10 BRAF 2 hours Emax, A375.10 cells, BRAF V600E, 2 hours, residual protein remaining) | DC50 (BRAF V600E; [8]) | DC50 (BRAF V600E; [9]) | HiBiT-Degradation A375.10 BRAF 6 hours Emax (BRAF V600E; [10]) | HiBiT-Degradation A375.10 BRAF 24 hours Emax (BRAF V600E; [11]) | HiBiT-Degradation A375.10 BRAF 2 hours Emax (BRAF V600E) | Emax (BRAF V600E; A375.10 cells, BRAF V600E, 6 hours, residual protein remaining, read-out: HiBiT-Degradation A375.10 BRAF 6 hours Emax) | CTGlo A375.11 96 hours Emax (A375-NRAS^Q61K cells) | Emax (A375-NRAS^Q61K cells; Homo sapiens, 96 h)
1 | CCN(C)S(=O)(=O)Nc1ccc(F)c(Oc2ccc3ncn(C4CC5(CCN(C6CCC(c7cc8c(cc7F)c(N7CCC(=O)NC7=O)nn8C)CC6)C5)C4)c(=O)c3c2)c1C#N (single isomer, unassigned) [Compound 206, 6-[2-cyano-3-[[ethyl(methyl)sulfamoyl]amino]-6-fluoro-phenoxy]-3-[6-[4-[3-(2,4-dioxohexahydropyrimidin-1-yl)-5-fluoro-1-methyl-indazol-6-yl]cyclohexyl]-6-azaspiro[3.4]octan-2-yl]-4-oxo-quinazoline] | < 1000 nM | < 1000 nM | < 1000 nM | < 50% | < 1000 nM | < 50% | < 1000 nM |  |  |  |  |  |  |  |  |  | ** (<90% and >50%) | 
2 | CCN(C)S(=O)(=O)Nc1ccc(F)c(Oc2ccc3ncc([C@@H]4COC5(CCN(C6CC7(C6)CN(c6cc8c(cc6F)c(N6CCC(=O)NC6=O)nn8C)C7)CC5)C4)nc3c2)c1C#N [Compound 161, (3R)-3-[7-[2-cyano-3-[[ethyl(methyl)sulfamoyl]amino]-6-fluoro-phenoxy]quinoxalin-2-yl]-8-[2-[3-(2,4-dioxohexahydropyrimidin-1-yl)-5-fluoro-1-methyl-indazol-6-yl]-2-azaspiro[3.3]heptan-6-yl]-1-oxa-8-azaspiro[4.5]decane] |  | < 1000 nM | > 10000 nM |  |  |  |  |  | 1000 to 10000 nM | 50 to 90% |  |  |  |  |  |  |  | 50 to 90%
3 | CCN(C)S(=O)(=O)Nc1ccc(F)c(Oc2ccc3ncn([C@H]4COC5(CCN(C6CC(c7ccc(NC8CCC(=O)NC8=O)cc7F)C6)CC5)C4)c(=O)c3c2)c1C#N (single isomer, unassigned) [Compound 63] | < 1000 nM | < 1000 nM | < 1000 nM |  | < 1000 nM |  | < 1000 nM | *** (<=50%) |  |  | < 1000 nM | < 1000 nM | *** (<=50%) | *** (<=50%) |  |  | *** (<=50%) | 
4 | CCN(C)S(=O)(=O)Nc1ccc(F)c(Oc2ccc3ncn(C4CC5(CCN(C6CCC(c7cc8c(cc7F)c(N7CCC(=O)NC7=O)nn8C)CC6F)CC5)C4)c(=O)c3c2)c1C#N (single isomer, unassigned) [Compound 84, 6-[2-cyano-3-[[ethyl(methyl)sulfamoyl]amino]-6-fluoro-phenoxy]-3-[7-[4-[3-(2,4-dioxohexahydropyrimidin-1-yl)-5-fluoro-1-methyl-indazol-6-yl]-2-fluoro-cyclohexyl]-7-azaspiro[3.5]nonan-2-yl]-4-oxo-quinazoline] | 1000 to 10000 nM | < 1000 nM | < 1000 nM |  | < 1000 nM |  | < 1000 nM |  |  |  | < 1000 nM | < 1000 nM | *** (<=50%) | *** (<=50%) | *** (<=50%) |  | ** (<90% and >50%) | 
5 | CCN(C)S(=O)(=O)Nc1ccc(F)c(Nc2ccc3ncn([C@@H]4COC5(CCN(C6CCC(c7cc8c(cc7F)c(N7CCC(=O)NC7=O)nn8C)CC6)CC5)C4)c(=O)c3c2F)c1C#N (single isomer, unassigned) [Compound 69] | < 1000 nM | < 1000 nM | < 1000 nM |  | < 1000 nM | < 50% | < 1000 nM | *** (<=50%) |  |  | < 1000 nM | < 1000 nM |  |  |  | < 50% | *** (<=50%) | 
6 | CCN(C)S(=O)(=O)Nc1ccc(F)c(Oc2ccc3ncn([C@H]4COC5(CCC(N6CCC(c7ccc(NC8CCC(=O)NC8=O)cc7F)C(F)(F)C6)CC5)C4)c(=O)c3c2)c1C#N (single isomer, unassigned) [Compound 190] |  | < 1000 nM | < 1000 nM | < 50% |  |  |  |  | 1000 to 10000 nM |  |  |  |  |  |  |  |  | < 50%

Continued, in another order:

Row | GI50 (A375-NRAS^Q61K cells) | DC50 (BRAF V600E; [1]) | DC50 (BRAF V600E; [2]) | Emax (BRAF V600E; [3]) | DC50 (BRAF V600E; [4]) | Emax (BRAF V600E; [5]) | DC50 (BRAF V600E; [6]) | HiBiT-Degradation A375.10 BRAF 2 hours Emax (BRAF V600E; [7]) | GI50 (A375-NRAS^Q61K cells; Homo sapiens, 96 h) | Emax (BRAF V600E; read-out: HiBiT-Degradation A375.10 BRAF 2 hours Emax, A375.10 cells, BRAF V600E, 2 hours, residual protein remaining) | DC50 (BRAF V600E; [8]) | DC50 (BRAF V600E; [9]) | HiBiT-Degradation A375.10 BRAF 6 hours Emax (BRAF V600E; [10]) | HiBiT-Degradation A375.10 BRAF 24 hours Emax (BRAF V600E; [11]) | HiBiT-Degradation A375.10 BRAF 2 hours Emax (BRAF V600E) | Emax (BRAF V600E; A375.10 cells, BRAF V600E, 6 hours, residual protein remaining, read-out: HiBiT-Degradation A375.10 BRAF 6 hours Emax) | Structure (SMILES) | CTGlo A375.11 96 hours Emax (A375-NRAS^Q61K cells) | Emax (A375-NRAS^Q61K cells; Homo sapiens, 96 h)
7 | 1000 to 10000 nM | < 1000 nM | < 1000 nM |  |  |  |  | ** (<90% and >50%) |  |  |  |  |  |  |  |  | CN(CCO)S(=O)(=O)Nc1ccc(F)c(Oc2ccc3ncc(C4CC5(CCN(C6CCC(c7cc8c(cc7F)c(N7CCC(=O)NC7=O)nn8C)CC6)CC5)C4)nc3c2)c1C#N (single isomer, unassigned) [Compound 295, 7-[2-cyano-6-fluoro-3-[[2-hydroxyethyl(methyl)sulfamoyl]amino]phenoxy]-2-[7-[4-[3-(2,4-dioxohexahydropyrimidin-1-yl)-5-fluoro-1-methyl-indazol-6-yl]cyclohexyl]-7-azaspiro[3.5]nonan-2-yl]quinoxaline] | * (>=90%) | 
8 | < 1000 nM | < 1000 nM | < 1000 nM |  |  |  |  | *** (<=50%) |  |  |  |  |  |  |  |  | CC(C)S(=O)(=O)Nc1ccc(F)c(Oc2ccc3ncc(C4CC5(CCN(C6CCC(c7cc8c(cc7F)c(N7CCC(=O)NC7=O)nn8C)CC6)CC5)C4)nc3c2)c1C#N (single isomer, unassigned) [Compound 249, N-[2-cyano-3-[3-[7-[4-[3-(2,4-dioxohexahydropyrimidin-1-yl)-5-fluoro-1-methyl-indazol-6-yl]cyclohexyl]-7-azaspiro[3.5]nonan-2-yl]quinoxalin-6-yl]oxy-4-fluoro-phenyl]propane-2-sulfonamide] | ** (<90% and >50%) | 
9 | > 10000 nM | < 1000 nM | 1000 to 10000 nM | < 50% |  |  |  |  |  |  |  |  |  |  |  |  | CCN(C)S(=O)(=O)Nc1ccc(F)c(Oc2ccc3ncn([C@H]4COC5(C4)CN(C4CCC(c6cc7c(cc6F)c(N6CCC(=O)NC6=O)nn7C)CC4)C5)c(=O)c3c2)c1C#N (single isomer, unassigned) [Compound 235] |  | 50 to 90%
10 | < 1000 nM | < 1000 nM | < 1000 nM |  |  |  |  | *** (<=50%) |  |  |  |  |  |  |  |  | CCN(C)S(=O)(=O)Nc1ccc(F)c(Oc2ccc3ncc(OCC4(F)CCN(C5CCC(c6cc7c(cc6F)c(N6CCC(=O)NC6=O)nn7C)CC5)CC4)nc3c2)c1C#N (single isomer, unassigned) [Compound 229, 7-[2-cyano-3-[[ethyl(methyl)sulfamoyl]amino]-6-fluoro-phenoxy]-2-[[1-[4-[3-(2,4-dioxohexahydropyrimidin-1-yl)-5-fluoro-1-methyl-indazol-6-yl]cyclohexyl]-4-fluoro-4-piperidyl]methoxy]quinoxaline] | ** (<90% and >50%) | 
11 | > 10000 nM | < 1000 nM | 1000 to 10000 nM |  |  |  |  | ** (<90% and >50%) |  |  |  |  |  |  |  |  | CN(CCO)S(=O)(=O)Nc1ccc(F)c(Oc2ccc3ncc(C4CC5(C4)CN(C4CCC(c6cc7c(cc6F)c(N6CCC(=O)NC6=O)nn7C)CC4)C5)nc3c2)c1C#N (single isomer, unassigned) [Compound 322, 7-[2-cyano-6-fluoro-3-[[2-hydroxyethyl(methyl)sulfamoyl]amino]phenoxy]-2-[2-[4-[3-(2,4-dioxohexahydropyrimidin-1-yl)-5-fluoro-1-methyl-indazol-6-yl]cyclohexyl]-2-azaspiro[3.3]heptan-6-yl]quinoxaline] | ** (<90% and >50%) | 
